Biological target: ATP-dependent translocase ABCB1 (Homo sapiens, UniProt P08183)
Assay: TP_TRANSPORTER: increase in Vinblastine intracellular accumulation (Vinblastine: 0.0375 uM, PBA: 1 uM) in KB8-5 cells
Assay type: functional, cell-based
Conditions: kb8-5, 1 µM

ATP-dependent translocase ABCB1, sequence (P08183 whole entry): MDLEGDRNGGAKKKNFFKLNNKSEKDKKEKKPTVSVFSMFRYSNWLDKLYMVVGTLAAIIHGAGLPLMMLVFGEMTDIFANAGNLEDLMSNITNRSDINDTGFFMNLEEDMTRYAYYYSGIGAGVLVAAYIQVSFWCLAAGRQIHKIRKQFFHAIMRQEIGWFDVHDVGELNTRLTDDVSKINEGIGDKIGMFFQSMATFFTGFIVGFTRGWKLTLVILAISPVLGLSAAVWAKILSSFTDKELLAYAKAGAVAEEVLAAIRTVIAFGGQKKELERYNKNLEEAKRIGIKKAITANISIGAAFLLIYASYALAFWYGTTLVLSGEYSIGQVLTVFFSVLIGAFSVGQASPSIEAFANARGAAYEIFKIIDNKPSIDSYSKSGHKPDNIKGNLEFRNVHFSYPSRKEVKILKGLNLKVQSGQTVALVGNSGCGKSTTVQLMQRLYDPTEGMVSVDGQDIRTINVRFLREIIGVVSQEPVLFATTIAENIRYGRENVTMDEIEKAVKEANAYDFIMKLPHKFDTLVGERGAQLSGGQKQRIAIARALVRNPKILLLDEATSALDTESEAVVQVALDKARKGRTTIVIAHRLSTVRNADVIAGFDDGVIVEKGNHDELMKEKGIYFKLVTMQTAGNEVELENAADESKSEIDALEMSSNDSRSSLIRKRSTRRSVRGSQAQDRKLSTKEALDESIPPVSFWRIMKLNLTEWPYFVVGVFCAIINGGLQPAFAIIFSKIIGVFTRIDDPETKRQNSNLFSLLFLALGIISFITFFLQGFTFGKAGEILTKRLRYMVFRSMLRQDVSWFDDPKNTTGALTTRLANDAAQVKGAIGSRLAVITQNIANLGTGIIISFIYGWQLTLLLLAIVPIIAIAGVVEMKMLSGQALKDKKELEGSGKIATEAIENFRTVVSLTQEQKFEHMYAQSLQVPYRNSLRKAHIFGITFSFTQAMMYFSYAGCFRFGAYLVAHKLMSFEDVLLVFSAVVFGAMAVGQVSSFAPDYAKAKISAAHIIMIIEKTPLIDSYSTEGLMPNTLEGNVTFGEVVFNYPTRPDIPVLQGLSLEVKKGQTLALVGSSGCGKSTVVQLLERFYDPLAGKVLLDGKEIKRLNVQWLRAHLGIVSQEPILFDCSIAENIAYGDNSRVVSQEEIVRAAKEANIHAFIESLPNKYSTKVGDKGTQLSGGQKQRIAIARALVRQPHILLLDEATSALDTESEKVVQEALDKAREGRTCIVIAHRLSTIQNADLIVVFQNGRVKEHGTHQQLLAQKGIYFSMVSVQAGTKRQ

`O=c1c2ccccc2n(CCCn2c3ccccc3c(=O)c3ccccc32)c2ccccc12` was tested, and the Inhibition was “inhibitor [800-900 % inhibition]”.

Source: ChEMBL document CHEMBL2074367, “Characterization of a novel bisacridone and comparison with PSC 833 as a potent and poorly reversible modulator of P-glycoprotein” (Mol Pharmacol, 1997)
